Entries after “also recorded” stand apart in the source; their conditions may differ.
Assays:
[1] = target: T1, human recombinant aromatase (Homo sapiens, UniProt P11511); assay: Inhibitory effects against human recombinant aromatase (DBF fluorescence assay); format: biochemical; details: substrate DBF; mean, N = 3
T1 construct: purchased BD Biosciences (Heidelberg, Germany)
T1 sequence (P11511 1-503): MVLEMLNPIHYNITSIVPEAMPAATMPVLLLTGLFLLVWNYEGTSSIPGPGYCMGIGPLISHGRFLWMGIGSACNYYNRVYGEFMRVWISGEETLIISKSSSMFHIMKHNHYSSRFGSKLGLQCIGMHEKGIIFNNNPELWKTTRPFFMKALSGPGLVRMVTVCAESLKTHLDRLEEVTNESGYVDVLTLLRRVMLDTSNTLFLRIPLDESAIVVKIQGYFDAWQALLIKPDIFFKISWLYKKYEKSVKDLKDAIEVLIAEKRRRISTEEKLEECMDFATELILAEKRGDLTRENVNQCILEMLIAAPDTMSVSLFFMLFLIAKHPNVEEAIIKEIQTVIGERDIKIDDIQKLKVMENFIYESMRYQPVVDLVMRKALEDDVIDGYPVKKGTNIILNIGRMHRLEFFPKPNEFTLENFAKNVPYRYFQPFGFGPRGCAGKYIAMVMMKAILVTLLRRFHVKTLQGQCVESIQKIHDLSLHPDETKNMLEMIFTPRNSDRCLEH
Description: Dibenzylfluorescein (DBF) and human CYP19 + P450 reductase SUPERSOMES (human recombinant aromatase) were purchased from BD Biosciences (Heidelberg, Germany) and testosterone from Tokyo Chemical Industry Co., Ltd. (Tokyo, Japan). The other chemicals used in this study were purchased from Wako Pure Chemical Industries, Co., Ltd. (Osaka, Japan).
The experiments were performed according to a previously described method. Briefly, a test sample was dissolved in dimethyl sulfoxide (DMSO), and the solution was diluted with potassium phosphate buffer (50 mM, pH 7.4) containing MgCl2 (0.5 mM) to obtain the test sample solution (concentration of DMSO: 2%). An enzyme/substrate solution in the buffer (20 µL, 1.6 µM DBF, 8 nM human recombinant aromatase) and the test sample solution (20 µL) were mixed in a 96-well half-area black microplate (Greiner Bio-One, Frickenhausen, Germany) at 37 °C for 10 min. The enzymatic reaction was initiated by adding NADPH solution (40 µL, 500 µM) at 37 °C for 30 min. After 30 min of incubation, NaOH (30 µL, 2 mM) was added, and the reaction mixture was incubated at 37 °C for 2 h to induce fluorescent signals (final DMSO concentration, 0.5%; aromatase, 2 nM; and NADPH, 250 µM). Fluorescence was measured using a fluorescence microplate reader (SH-9000, CORONA […] Co., Ltd., Ibaraki, Japan) at an excitation wavelength of 435 nm and emission wavelength of 535 nm. Experiments were performed in triplicate, and the IC50 values were determined graphically.

[2] = target: T1, human recombinant aromatase; assay: Kinetic analysis of inhibitory activity against human recombinant aromatase using Lineweaver-Burk plots (testosterone substrate, estradiol EIA); format: biochemical; details: for mode of inhibition of aromatase: Lineweaver–Burk plots; for Ki: testosterone 0.4–4 µM as substrate, secondary plot of Lineweaver–Burk, N = 3
Source text: In the assay system, we fixed the enzyme concentration, changed the substrate concentration, and obtained the kinetic parameters of the enzyme-catalyzed reaction using Lineweaver–Burk double reciprocal plot 1/[V] vs. 1/[S]. The inhibition constant Ki indicates the potency of an inhibitor and equals the concentration required to produce half-maximal inhibition. The Ki value was obtained from the intersection of the secondary plot with the x-axis (apparent Km/Vmax vs. inhibitor).
Experiments were performed using a previously described protocol, modified by using various concentrations of testosterone (0.4–4 µM) as substrates instead of DBF and the plate was heated at 37 °C for 15 min. After the reaction, the enzyme was inactivated by heating in a boiling water bath for 2 min. An estradiol EIA kit (Oxford Biomedical Research, Inc., Oxford, MI, USA) was used to develop an estradiol standard curve to determine the concentration of estradiol produced and to correlate the concentration of estradiol with the reaction velocity. The mode of inhibition was analyzed using the Lineweaver–Burk plot of the inverse of the reaction velocity of estradiol plotted on the vertical axis and the inverse of the final concentration of the substrate on the horizontal axis, with and without the test substance (Figure S27).

For C=C(C)c1cc2c(o1)c(C(=O)CCC)c(O)c1c(-c3ccccc3)cc(=O)oc12 [compound 4, mammeasin N], the IC50 [1] was 12 µM, the “mode of inhibition of aromatase” value [2] was “competitive inhibition; also recorded: competitive inhibitors” and the Ki [2] was 2.6 µM.
Work on CC(C)CC(=O)c1c2c(c3oc(=O)cc(-c4ccccc4)c3c1O)CC(C(C)(C)O)O2 (centres unmarked) [compound 39, Mammea A/AA cyclo F] yielded an IC50 [1] of 9.2 µM and a Ki [2] of 4.3 µM.
With C=C(C)c1cc2c(o1)c(C(=O)CC(C)C)c(O)c1c(-c3ccccc3)cc(=O)oc12 [compound 5, mammeasin O] the IC50 [1] was 9.1 µM, the “mode of inhibition of aromatase” value [2] was “competitively inhibit; also recorded: competitive inhibition; also recorded: competitive inhibitors” and the Ki [2] was 2.3 µM.
